Results taken from PMC11672294, “The Antipsychotic Drug Aripiprazole Suppresses Colorectal Cancer by Targeting LAMP2a to Induce RNH1/miR‐99a/mTOR‐Mediated Autophagy and Apoptosis” (Advanced Science, 2024).
Counter-ions that a name gives are not always drawn. Starred links: 1 amine or outer side, 2 acyl side, 3 side chain; linkers in the order of their positions; H or OH if unused. Positions of bridges follow the written chain, without caps; N, C: chain ends. Non-standard residues stand in square brackets, D forms with d. Residues, ends and D or L forms follow the SMILES beside them. *: point of attachment. hTyr(3S-OH,4S-OH,3'-OSO3H) = N[C@H](C(=O)O)[C@H](O)[C@@H](O)c1ccc(O)c(OS(=O)(=O)O)c1; Orn(4R-OH,5R-OH) = O=C([C@H](C[C@@H](O)[C@@H](O)N[*:3])N[*:1])[*:2]; Pro(3S-OH,4S-Me) = C[C@H]1CN[C@H](C(=O)O)[C@H]1O; X1 = CCCCCOc1ccc(-c2cc(-c3ccc(C(=O)*)cc3)no2)cc1; Gln(3R-OH) = NC(=O)C[C@@H](O)[C@H](N)C(=O)O; Hyp = O=C(O)[C@@H]1C[C@@H](O)CN1

Tested on: HT29
Conditions: 72 h, relative to DMSO, 10 µM, Relative cell viability (%)
In short: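 Cells were exposed to drug for 72 h, then to WST-1 for 2 h at 37 °C, and absorbance was read at 450 nm as viability against DMSO treatment. In the screen, each compound was applied at 10 µM.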

SMILES | Relative cell viability (%) [%]
CC(C)NCC(O)COc1ccc(CCOCC2CC2)cc1 (stereo not shown) [Betaxolol hydrochloride (Betoptic)] | 100.8
CCN(C)C(=O)Oc1cccc([C@H](C)N(C)C)c1 [Rivastigmine Tartrate] | 125

Same assay, conditions: 72 h, relative to DMSO; 10 µM

SMILES | Relative cell viability (%) [%]
N#C/C(=C1/SC[C@@H](c2ccc(Cl)cc2Cl)S1)n1ccnc1 [Luliconazole] | 76.67
C[N+]1(C)[C@@H]2C[C@@H](OC(=O)[C@H](CO)c3ccccc3)C[C@H]1[C@@H]1O[C@@H]12 [Methscopolamine] | 132.5
CN1C(=O)CCS(=O)(=O)C1c1ccc(Cl)cc1 (stereo not shown) [Chlormezanone] | 142.8
CC[C@@H]([C@H](C)O)n1ncn(-c2ccc(N3CCN(c4ccc(OC[C@@H]5CO[C@@](Cn6cncn6)(c6ccc(F)cc6F)C5)cc4)CC3)cc2)c1=O [Posaconazole] | 32.24
COC(c1ccccc1)(c1ccccc1)[C@H](Oc1nc(C)cc(C)n1)C(=O)O [Ambrisentan] | 132.6
COC(=O)[C@H](Cc1ccccc1)NC(=O)[C@@H](N)CC(=O)O [Aspartame] (H-Asp-Phe-OMe) | 199.9
CCCCCCCCCCCCCCCC[n+]1ccccc1 [Cetylpyridinium Chloride] | 5.758
COc1cc(OC)c(C(=O)CCCN2CCCC2)c(OC)c1 [Buflomedil HCl] | 34.47
Cc1nc(NC(=O)N2CCC[C@H]2C(N)=O)sc1-c1ccnc(C(C)(C)C(F)(F)F)c1 [BYL719] | 50.49
Cc1c(OCC(F)(F)F)ccnc1C[S+]([O-])c1nc2ccccc2[nH]1 (stereo not shown) [Lansoprazole] | 63.4
Nc1nc(N)nc(-c2cc(Cl)ccc2Cl)n1 [Irsogladine] | 176.5
CN(C)CC/C=C1/c2ccccc2Sc2ccc(Cl)cc21 [Chlorprothixene] | 28.39
NC[C@H](O)c1ccc(O)c(O)c1 [Noradrenaline bitartrate monohydrate] | 75.24
COc1ccccc1N1CCN(CCCNc2cc(=O)n(C)c(=O)n2C)CC1 [Urapidil HCl] | 222.9
C[N+](C)(C)CC(O)CC(=O)[O-] (racemic) [DL-Carnitine HCl] | 125.5
COc1cc(/C=C/C(=O)N2CCN(CC(=O)N3CCCC3)CC2)cc(OC)c1OC [Cinepazide maleate] | 86.89
Fc1ccc([C@@H]2CCNC[C@H]2COc2ccc3c(c2)OCO3)cc1 [Paroxetine HCl] | 19.9
O=c1oc2cc(O)ccc2s1 [Tioxolone] | 114.6
CCC1=C[C@@H]2CN(C1)Cc1c([nH]c3ccccc13)[C@@](C(=O)OC)(c1cc3c(cc1OC)N(C)[C@H]1[C@@](O)(C(=O)OC)[C@H](OC(C)=O)[C@]4(CC)C=CCN5CC[C@]31[C@@H]54)C2 [Vinorelbine Tartrate] | 15.76
CC(C)N(CCNC(=O)CN1CCCC1=O)C(C)C [Pramiracetam] | 79.61
O=C(O)c1cccnc1Nc1cccc(C(F)(F)F)c1 [Niflumic acid] | 95.63
OC[C@@H](O)[C@@H](O)[C@H](O)[C@@H](O)CO [Sorbitol] | 125

SMILES | Relative cell viability (%) [%]
CCCCCOc1ccc(-c2cc(-c3ccc(C(=O)N[C@H]4C[C@@H](O)[C@@H](O)NC(=O)[C@@H]5[C@@H](O)[C@@H](C)CN5C(=O)[C@H]([C@H](O)CC(N)=O)NC(=O)[C@H]([C@H](O)[C@@H](O)c5ccc(O)c(OS(=O)(=O)O)c5)NC(=O)[C@@H]5C[C@@H](O)CN5C(=O)[C@H]([C@@H](C)O)NC4=O)cc3)no2)cc1 [Micafungin Sodium] (X1-[Orn(4R-OH,5R-OH)]T[Hyp][hTyr(3S-OH,4S-OH,3'-OSO3H)][Gln(3R-OH)][Pro(3S-OH,4S-Me)]; lactam 1-C) | 77.58
CC(C)Nc1cc(-c2c[nH]c(C(=O)N[C@H](CO)c3cccc(Cl)c3)c2)c(Cl)cn1 [Ulixertinib (BVD-523, VRT752271)] | 30.34
CC(C)(C)c1nc(-c2cccc(NS(=O)(=O)c3c(F)cccc3F)c2F)c(-c2ccnc(N)n2)s1 [Dabrafenib (GSK2118436)] | 37.38
CN(Cc1cc(Br)cc(Br)c1N)C1CCCCC1 [Bromhexine HCl] | 122.9
CC(CCc1ccccc1)NCC(O)c1ccc(O)c(C(N)=O)c1 (stereo not shown) [Labetalol HCl] | 55.76
CCCCCCCCCCCCCCCC[N+](C)(C)C [Cetrimonium Bromide (CTAB)] | 18.48
C[C@@H](O[C@H]1OCCN(Cc2nc(O)n(P(=O)(O)O)n2)[C@H]1c1ccc(F)cc1)c1cc(C(F)(F)F)cc(C(F)(F)F)c1 [Fosaprepitant dimeglumine salt] | 111.6
Cc1cccc(-c2nn3c(c2-c2ccnc4ccc(C(N)=O)cc24)CCC3)n1 [LY2157299] | 106.7
O=C1CC2(CCCC2)CC(=O)N1CCCCN1CCN(c2ncccn2)CC1 [Buspirone HCl] | 73.94
Cc1noc(NS(=O)(=O)c2ccc(N)cc2)c1C [Sulfisoxazole] | 134.3
CCCCOc1ccc(C(=O)CCN2CCCCC2)cc1 [Dyclonine HCl] | 155.2
CCOC(=O)C1=C[C@]2(CC)CCCN3CCc4c(n1c1ccccc41)[C@@H]32 [Vinpocetine] | 107.3
C[C@H](CCC(=O)O)[C@H]1CC[C@H]2[C@@H]3[C@H](O)C[C@@H]4C[C@H](O)CC[C@]4(C)[C@H]3CC[C@]12C [Chenodeoxycholic Acid] | 60.17
Nc1nc(N)nc(NC2CC2)n1 [Cyromazine] | 68.48
NC(=O)[C@@H](CCC(F)(F)F)N(Cc1ccc(-c2ncon2)cc1F)S(=O)(=O)c1ccc(Cl)cc1 [Avagacestat (BMS-708163)] | 74.3
C/C(O)=C(\C#N)C(=O)Nc1ccc(C(F)(F)F)cc1 [Teriflunomide] | 75.76
Cc1c(-c2ccnn2C)cc(C(=O)NCc2ccc(S(C)(=O)=O)cn2)c(=O)n1-c1cccc(C(F)(F)F)c1 [Alvelestat (AZD9668)] | 116.2
CCCC(=O)OCOC(=O)C1=C(C)NC(C)=C(C(=O)OC)C1c1cccc(Cl)c1Cl (stereo not shown) [Clevidipine Butyrate] | 112
CC1=C(C(=O)OC(C)C)C(c2cccc([N+](=O)[O-])c2)C(C(=O)OC2CN(C(c3ccccc3)c3ccccc3)C2)=C(N)N1 (stereo not shown) [Azelnidipine] | 73.79
CCn1cc(C(=O)O)c(=O)c2cc(F)c(N3CCNCC3)nc21 [Enoxacin] | 74.15
CC1=CC(=O)c2ccccc2C1=O [Menadione] | 15.16
Cc1nc(Nc2ncc(C(=O)Nc3c(C)cccc3Cl)s2)cc(N2CCN(CCO)CC2)n1 [Dasatinib Monohydrate] | 20.09

SMILES | Relative cell viability (%) [%]
C[C@@H](O)[C@H]1C(=O)N2C(C(=O)O)=C(S[C@@H]3CN[C@H](CNS(N)(=O)=O)C3)[C@H](C)[C@H]12 [Doripenem Hydrate] | 88.32
O=C(O)c1cn(-c2ccc(F)cc2)c2cc(N3CCNCC3)c(F)cc2c1=O [Sarafloxacin HCl] | 85.35
O=C1Nc2ccc(Cl)cc2[C@@](C#CC2CC2)(C(F)(F)F)O1 [Efavirenz] | 72.65
C[C@]12CCC(=O)C=C1[C@@H]1C[C@@H]1[C@H]1[C@@H]3[C@@H]4C[C@@H]4[C@@]4(CCC(=O)O4)[C@@]3(C)CC[C@@H]12 [Drospirenone] | 86.76
CC(C)(C)c1ccc(C(=O)CCCN2CCC(OC(c3ccccc3)c3ccccc3)CC2)cc1 [Ebastine] | 13.94
O=C(NC[C@H]1CN(c2ccc(N3CCOCC3=O)cc2)C(=O)O1)c1ccc(Cl)s1 [Rivaroxaban] | 107.3
CCOC(=O)C1=C[C@@H](OC(CC)CC)[C@H](NC(C)=O)[C@@H](N)C1 [Oseltamivir Phosphate] | 60.68
COc1cccc2c1C(=O)c1c(O)c3c(c(O)c1C2=O)C[C@@](O)(C(=O)CO)C[C@@H]3O[C@H]1C[C@H](N)[C@@H](O)[C@H](C)O1 [Epirubicin HCl] | 10.44
COc1cc(OC)c(/C=C/S(=O)(=O)Cc2ccc(OC)c(NCC(=O)O)c2)c(OC)c1 [Rigosertib (ON-01910)] | 4.206
NC(CO)(CO)CO [Trometamol] | 73.94
N[C@@H]1CN(c2c(F)cc3c(=O)c(C(=O)O)cn([C@@H]4C[C@@H]4F)c3c2Cl)CC12CC2 [Sitafloxacin Hydrate] | 126.1
Cc1ccc(=O)n(-c2ccccc2)c1 [Pirfenidone] | 56.31
CC1(C)CCC(C)(C)c2cc(NC(=O)c3ccc(C(=O)O)cc3)ccc21 [Tamibarotene] | 94.85
COc1ccc(-c2ccc3cc(C(=O)O)ccc3c2)cc1[C@]12C[C@H]3C[C@H](C[C@H](C3)C1)C2 [Adapalene] | 16.67
CCOC(=O)[C@H](CCc1ccccc1)N[C@@H](C)C(=O)N1C(=O)N(C)C[C@H]1C(=O)O [Imidapril HCl] | 128.5
NC(=O)c1cc(N2CC2)c([N+](=O)[O-])cc1[N+](=O)[O-] [CB1954] | 115
c1ccc(-c2ccc(C(c3ccccc3)n3ccnc3)cc2)cc1 (stereo not shown) [Bifonazole] | 88.14
C[C@@H]1CCO[C@H]2Cn3cc(C(=O)NCc4ccc(F)cc4F)c(=O)c(O)c3C(=O)N12 [Dolutegravir (GSK1349572)] | 70.87
NC(=O)CN1CC(O)CC1=O (stereo not shown) [Oxiracetam] | 54.85
C[C@@H]1CN(c2c(F)c(N)c3c(=O)c(C(=O)O)cn(C4CC4)c3c2F)C[C@H](C)N1 [Sparfloxacin] | 75.42
O=C1NC(=O)[C@@H](c2cn3c4c(cccc24)CCC3)[C@@H]1c1c[nH]c2ccccc12 [Tivantinib (ARQ 197)] | 27.18
